Laboratory results published in patent US20230390267A1, “TREATMENT REGIMENS FOR EARLY IDIOPATHIC PARKINSON'S DISEASE” (BIAL - PORTELA & CA., S.A., priority 2020, published 2023).

Experiments:
[1] = test system: patients with early idiopathic Parkinson's disease treated with levodopa/DDCI, with no signs of motor complications; assay: EPSILON Phase III double-blind placebo-controlled study, efficacy; format: in vivo, human
Description: The primary endpoint was the change from baseline to end of double-blind period in MDS-UPDRS Part III (motor) scores, and secondary outcomes assessed non-motor symptoms, quality of life and global clinical impressions of change.
Subjects were between 30 and 80 years of age, inclusive, diagnosed with early idiopathic Parkinson's disease according to the United Kingdom Parkinson's Disease Society Brain Bank Clinical Diagnostic Criteria within the previous 5 years, with disease severity stage 1-2.5 (according to modified Hoehn & Yahr staging) and a MDS-UPDRS Part III score>20. Alternatively, the subjects were diagnosed with early idiopathic Parkinson's disease according to the […] within the previous 5 years, with disease severity stage 1-2.5 (according to modified Hoehn & Yahr staging) and a MDS-UPDRS Part III score>20.
322 subjects completed the double-blind phase (FIG. 10).
Study treatment was administered in combination with the subject's existing treatment of levodopa/DDCI.
The primary efficacy parameter, change from baseline (Visit 2) in MDS-UPDRS Part III total score at the end of the double-blind period (Visit 9), was analyzed using a Mixed Model Repeated Measures (MMRM) approach with fixed effects for baseline, center/country, (randomized) treatment, visit, treatment by visit interaction and baseline by visit interaction, and subject as a random effect. Difference between treatment groups (opicapone versus placebo) was estimated from the model.
A similar MMRM analysis used for the primary endpoint was used for relevant secondary efficacy endpoints in the double-blind period. The secondary endpoints included: • Change from baseline (Visit 2) to post-baseline visits during the double-blind trial in: • MDS-UPDRS scores: Parts I, II, III and IV, and Part II+III total • Modified Hoehn & Yahr staging total score during maximum ‘ON’ response • Schwab and England scale score • Parkinson's Disease Sleep Scale 2 (PDSS-2) total score • MDS-Non-motor Symptom Scale (MDS-NMSS) total and subdomain scores • Parkinson's Disease Questionnaire (PDQ-39) total and subdomain scores • 9-item Wearing-off questionnaire (WOQ9) total and sub-section (motor and non-motor) scores • Clinical Global Impression of Improvement (CGI-I) • Patient's Global Impression of Improvement (PGI-I)
The proportion of subjects with an improvement from baseline in CGI-I (preferably relative to before the beginning of treatment) and PGI-I (preferably relative to their admission to the study) scores at the end of the double blind period (Visit 9) endpoint was analysed using logistic regression, with (randomized) treatment included in the model.

COMT activity in brain = details: cited from earlier work
erythrocyte COMT = details: cynomolgus monkey; cited from earlier work

Cc1c(Cl)c(C)[n+]([O-])c(Cl)c1-c1noc(-c2cc(O)c(O)c([N+](=O)[O-])c2)n1 [opicapone, 2,5-dichloro-3-[5-(3,4-dihydroxy-5-nitrophenyl)-1,2,4-oxadiazol-3-yl]-4,6-dimethylpyridine 1-oxide]
MDS-UPDRS Part III total score, change from baseline, LS mean, estimates from MMRM ([1]; OPC 50 mg once daily + L-DOPA/DDCI, Week 24): −6.5 | MDS-UPDRS Part III total score, Change from Baseline, Mean ([1]; OPC 50 mg once daily + L-DOPA/DDCI, baseline to 24 weeks): −5.8 | MDS-UPDRS Part III total score, Week 24, Mean ([1]; OPC 50 mg once daily + L-DOPA/DDCI, double-blind, Week 24, N = 176): 27.2 | MDS-UPDRS Part III total score, LS Mean Diff. (SE) vs placebo, MMRM ([1]; OPC 50 mg vs placebo, Week 2): −0.8 (0.8) | MDS-UPDRS Part II + III total score, LS Mean Diff. (SE) vs placebo ([1]; OPC 50 mg vs placebo, Week 4): −1.4 (0.9) | MDS-UPDRS Part II total score, LS Mean Diff. (SE) vs placebo ([1]; OPC 50 mg vs placebo, Week 4): −0.2 (0.3) | MDS-UPDRS Part III total score, LS Mean Diff. (SE) vs placebo, MMRM ([1]; OPC 50 mg vs placebo, Week 4): −1.2 (0.8) | MDS-UPDRS Part II + III total score, LS Mean Diff. (SE) vs placebo ([1]; OPC 50 mg vs placebo, Week 12): −1.7 (1.06) | MDS-UPDRS Part II total score, LS Mean Diff. (SE) vs placebo ([1]; OPC 50 mg vs placebo, Week 12): −0.2 (0.4) | MDS-UPDRS Part III total score, LS Mean Diff. (SE) vs placebo, MMRM ([1]; OPC 50 mg vs placebo, Week 12): −1.7 (0.9) | MDS-UPDRS Part I total score, LS Mean Diff. (SE) vs placebo ([1]; OPC 50 mg vs placebo, Week 24): −0.2 (0.4) | MDS-UPDRS Part II + III total score, LS Mean Diff. (SE) vs placebo ([1]; OPC 50 mg vs placebo, Week 24): −2.8 (1.3) | MDS-UPDRS Part II total score, LS Mean Diff. (SE) vs placebo ([1]; OPC 50 mg vs placebo, Week 24): −0.7 (0.4) | MDS-UPDRS Part III total score, LS Mean Diff. (SE) vs placebo, MMRM ([1]; OPC 50 mg vs placebo, Week 24): −2.2 (0.9) | MDS-UPDRS Part IV total score, LS Mean Diff. (SE) vs placebo ([1]; OPC 50 mg vs placebo, Week 24): −0.11 (0.1) | PDQ-39 total score, LS Mean Diff. (SE) vs placebo ([1]; OPC 50 mg vs placebo, Week 24): −0.26 (0.77) | PDSS-2 total score, LS Mean Diff. (SE) vs placebo ([1]; OPC 50 mg vs placebo, Week 24): −1.5 (0.7) | MDS-UPDRS Part III total score, Change to Week 2, LS mean ([1]; OPC 50 mg, Week 2): −4.6 | MDS-UPDRS Part II + III total score, Change to Week 4, LS mean ([1]; OPC 50 mg, Week 4): −7.3 | MDS-UPDRS Part II total score, Change to Week 4, LS mean ([1]; OPC 50 mg, Week 4): −0.8 | MDS-UPDRS Part III total score, Change to Week 4, LS mean ([1]; OPC 50 mg, Week 4): −6.0 | MDS-UPDRS Part II + III total score, Change to Week 12, LS mean ([1]; OPC 50 mg, Week 12): −7.4 | MDS-UPDRS Part II total score, Change to Week 12, LS mean ([1]; OPC 50 mg, Week 12): −0.7 | MDS-UPDRS Part III total score, Change to Week 12, LS mean ([1]; OPC 50 mg, Week 12): −6.2 | MDS-UPDRS Part I total score, change from baseline, LS mean, MMRM ([1]; OPC 50 mg, Week 24): 0.4 | MDS-UPDRS Part II + III total score, change from baseline, LS mean, MMRM ([1]; OPC 50 mg, Week 24): −7.4 | MDS-UPDRS Part II total score, change from baseline, LS mean, MMRM ([1]; OPC 50 mg, Week 24): −0.4 | MDS-UPDRS Part IV total score, change from baseline, LS mean (SE), MMRM ([1]; OPC 50 mg, Week 24): 0.3 (0.1) | NMSS, change from baseline, LS mean, MMRM ([1]; OPC 50 mg, Week 24): −1.4 | PDQ-39 total score, change from baseline, LS mean, MMRM ([1]; OPC 50 mg, Week 24): 0.42 | PDSS-2 total score, change from baseline, LS mean, MMRM ([1]; OPC 50 mg, Week 24): 0.0 | MDS-UPDRS Part I total score, Week 24, Mean ([1]; OPC 50 mg, Week 24, N = 176): 6.7 | MDS-UPDRS Part II + III total score, Week 24, Mean ([1]; OPC 50 mg, Week 24, N = 176): 35.7 | MDS-UPDRS Part II total score, Week 24, Mean ([1]; OPC 50 mg, Week 24, N = 176): 8.5 | MDS-UPDRS Part IV total score, Week 24, Mean (SD) ([1]; OPC 50 mg, Week 24, N = 176): 0.2 (0.8) | NMSS, Week 24, Mean ([1]; OPC 50 mg, Week 24, N = 176): 15.9 | PDQ-39 total score, Week 24, Mean ([1]; OPC 50 mg, Week 24, N = 176): 15.4 | PDSS-2 total score, Week 24, Mean ([1]; OPC 50 mg, Week 24, N = 176): 11.6 | MDS-UPDRS Part I total score, Change from Baseline, Mean ([1]; OPC 50 mg, baseline to week 24): 0.3 | MDS-UPDRS Part II + III total score, Change from Baseline, Mean ([1]; OPC 50 mg, baseline to week 24): −6.2 | MDS-UPDRS Part II total score, Change from Baseline, Mean ([1]; OPC 50 mg, baseline to week 24): −0.4 | MDS-UPDRS Part IV total score, Change from Baseline, Mean (SD) ([1]; OPC 50 mg, baseline to week 24): 0.2 (0.8) | NMSS, Change from Baseline, Mean ([1]; OPC 50 mg, baseline to week 24): −3.0 | PDQ-39 total score, Change from Baseline, Mean ([1]; OPC 50 mg, baseline to week 24): −0.29 | PDSS-2 total score, Change from Baseline, Mean ([1]; OPC 50 mg, baseline to week 24): −0.4 | symptomatic reduction in MDS-UPDRS Part III total score compared to placebo ([1]; baseline to end of double-blind period, p=0.010): 2.2 points | symptomatic reduction in MDS-UPDRS Part II+III total score compared to placebo ([1]; baseline to end of double-blind period, p=0.036): 2.8 points | magnitude of the changes in MDS-UPDRS Part I, MDS-UPDRS Part IV or PDQ-39 total scores ([1]; both groups (opicapone and placebo), double-blind period): less than 0.4 points | NMSS Domain 7 (urinary) subdomain score vs placebo ([1]; especially at Week 12 and Week 24 (p<0.05)): Significant improvements | proportion of patients who reported motor complications ([1]; opicapone 50 mg, end of 24-week double-blind period): 5.5% | proportion of patients reporting an improvement in their clinical condition (PGI-I score) ([1]; opicapone 50 mg, end of double-blind period, p=0.026 vs placebo): 57.9% | proportion of patients with an improvement in clinical condition assessed by a clinician (CGI-I score) ([1]; opicapone 50 mg, end of double-blind period, p=0.493 vs placebo): 50.3% | WOQ-9: proportion of subjects whose dexterity improved post-study medication ([1]; opicapone treated group): 56.6% | WOQ-9: proportion of subjects whose muscle cramping improved post-study medication ([1]; opicapone treated group): 28.3% | WOQ-9: proportion of subjects whose slowness of movement improved post-study medication ([1]; opicapone treated group): 66.2% | WOQ-9: proportion of subjects whose stiffness improved post-study medication ([1]; opicapone treated group): 56.9% | WOQ-9: proportion of subjects whose tremors improved post-study medication ([1]; opicapone treated group): 65.5% | effect on COMT activity in brain (COMT activity in brain): does not appear to have any effect | reduction in erythrocyte COMT activity (erythrocyte COMT): ≤ 85%
